Test results published in ChEMBL document CHEMBL1649287, “Postantibiotic effect of ceftaroline against gram-positive organisms” (2009).
Values after ≈ are worked out from the molar mass of the structure shown.

What was measured:
Type in all cases: functional
Staphylococcus aureus [1] = test: Antimicrobial activity against methicillin-resistant, vancomycin-hetroresistant Staphylococcus aureus 618 assessed as time required to induce post antibiotic sub-MIC effect at 0.2 times MIC after 1 hr by plate counting method; conditions: Staphylococcus aureus, 618, 1 h
Streptococcus pneumoniae [2] = test: Antimicrobial activity against Penicillin-susceptible Streptococcus pneumoniae s502 assessed as time required to induce sub-MIC effect at 0.3 times MIC after 1 hr by plate counting method; conditions: s502, 1 h
Staphylococcus aureus [3] = test: Antimicrobial activity against methicillin-susceptible, vancomycin-susceptible Staphylococcus aureus ATCC 29213 assessed as time required to induce sub-MIC effect at 0.3 times MIC after 1 hr by plate counting method; conditions: ATCC 29213, 1 h
Enterococcus faecalis [4] = test: Antimicrobial activity against vancomycin-resistant Enterococcus faecalis 266 assessed as time required to induce sub-MIC effect at 0.3 times MIC after 1 hr by plate counting method; conditions: Enterococcus faecalis, 266, 1 h
Staphylococcus aureus [5] = test: Antimicrobial activity against methicillin-susceptible, vancomycin-susceptible Staphylococcus aureus ATCC 29213 assessed as time required to induce sub-MIC effect at 0.2 times MIC after 1 hr by plate counting method; conditions: ATCC 29213, 1 h
Streptococcus pneumoniae [6] = test: Antimicrobial activity against Penicillin-intermediate Streptococcus pneumoniae s1234 assessed as time required to induce sub-MIC effect at 0.3 times MIC after 1 hr by plate counting method
Staphylococcus aureus [7] = test: Antimicrobial activity against methicillin-resistant, vancomycin-intermediate Staphylococcus aureus 510 assessed as time required to induce sub-MIC effect at 0.4 times MIC after 1 hr by plate counting method; conditions: Staphylococcus aureus, 510, 1 h
Staphylococcus aureus [8] = test: Antimicrobial activity against methicillin-susceptible, vancomycin-susceptible Staphylococcus aureus ATCC 29213 assessed as time required to induce sub-MIC effect at 0.4 times MIC after 1 hr by plate counting method; conditions: ATCC 29213, 1 h
Enterococcus faecalis [9] = test: Antimicrobial activity against vancomycin-resistant Enterococcus faecalis 609 assessed as time required to induce sub-MIC effect at 0.3 times MIC after 1 hr by plate counting method; conditions: Enterococcus faecalis, 609, 1 h
Enterococcus faecalis [10] = test: Antimicrobial activity against vancomycin-sensitive Enterococcus faecalis ATCC 29212 assessed as time required to induce sub-MIC effect at 0.4 times MIC after 1 hr by plate counting method; conditions: ATCC 29212, 1 h
Enterococcus faecalis [11] = test: Antimicrobial activity against vancomycin-resistant Enterococcus faecalis 609 assessed as time required to induce post antibiotic sub-MIC effect at 0.3 times MIC after 1 hr by plate counting method; conditions: Enterococcus faecalis, 609, 1 h
Staphylococcus aureus [12] = test: Antimicrobial activity against methicillin-resistant, vancomycin-hetroresistant Staphylococcus aureus 618 assessed as time required to induce post antibiotic sub-MIC effect at 0.4 times MIC after 1 hr by plate counting method; conditions: Staphylococcus aureus, 618, 1 h
Streptococcus pneumoniae [13] = test: Antimicrobial activity against Penicillin-susceptible Streptococcus pneumoniae s502 assessed as time required to induce post antibiotic sub-MIC effect at 0.4 times MIC after 1 hr by plate counting method; conditions: s502, 1 h
Staphylococcus aureus [14] = test: Antimicrobial activity against methicillin-resistant, vancomycin-susceptible Staphylococcus aureus vs1 assessed as time required to induce sub-MIC effect at 0.3 times MIC after 1 hr by plate counting method; conditions: vs1, 1 h
Streptococcus pneumoniae [15] = test: Antimicrobial activity against Penicillin-intermediate Streptococcus pneumoniae s1234 assessed as post antibiotic effect at 10 times MIC after 1 hr by plate counting method; conditions: s1234, 1 h
Enterococcus faecalis [16] = test: Antimicrobial activity against vancomycin-resistant Enterococcus faecalis 609 assessed as time required to induce post antibiotic sub-MIC effect at 0.2 times MIC after 1 hr by plate counting method; conditions: Enterococcus faecalis, 609, 1 h
Staphylococcus aureus [17] = test: Antimicrobial activity against methicillin-resistant, vancomycin-resistant Staphylococcus aureus 770 assessed as time required to induce post antibiotic sub-MIC effect at 0.4 times MIC after 1 hr by plate counting method; conditions: Staphylococcus aureus, 770, 1 h
Streptococcus pneumoniae [18] = test: Antimicrobial activity against Penicillin-susceptible Streptococcus pneumoniae s502 by microdilution method
Streptococcus pneumoniae [19] = test: Antimicrobial activity against Streptococcus pneumoniae ATCC 10813 infected in neutropenic ICR mouse assessed as post antibiotic effect at 1.56 to 100 mg/kg, sc administered 14 hrs post infection; conditions: dose mg/kg 1.56-100; route subcutaneous
Enterococcus faecalis [20] = test: Antimicrobial activity against vancomycin-sensitive Enterococcus faecalis 10 assessed as time required to induce post antibiotic sub-MIC effect at 0.4 times MIC after 1 hr by plate counting method; conditions: Enterococcus faecalis, 10, 1 h
Enterococcus faecalis [21] = test: Antimicrobial activity against vancomycin-resistant Enterococcus faecalis 266 assessed as time required to induce post antibiotic sub-MIC effect at 0.4 times MIC after 1 hr by plate counting method; conditions: Enterococcus faecalis, 266, 1 h
Staphylococcus aureus [22] = test: Antimicrobial activity against methicillin-resistant, vancomycin-hetroresistant Staphylococcus aureus 618 assessed as time required to induce post antibiotic sub-MIC effect at 0.3 times MIC after 1 hr by plate counting method; conditions: Staphylococcus aureus, 618, 1 h
Staphylococcus aureus [23] = test: Antimicrobial activity against methicillin-susceptible, vancomycin-susceptible Staphylococcus aureus sox1 assessed as time required to induce sub-MIC effect at 0.4 times MIC after 1 hr by plate counting method; conditions: sox1, 1 h
Streptococcus pneumoniae [24] = test: Antimicrobial activity against Penicillin-susceptible Streptococcus pneumoniae ATCC 49617 assessed as post antibiotic effect at 10 times MIC after 1 hr by plate counting method; conditions: ATCC 49617, 1 h
Enterococcus faecalis [25] = test: Antimicrobial activity against vancomycin-sensitive Enterococcus faecalis ATCC 29212 assessed as time required to induce post antibiotic sub-MIC effect at 0.2 times MIC after 1 hr by plate counting method; conditions: ATCC 29212, 1 h
Enterococcus faecalis [26] = test: Antimicrobial activity against vancomycin-sensitive Enterococcus faecalis 20 assessed as post antibiotic effect at 10 times MIC after 1 hr by plate counting method; conditions: Enterococcus faecalis, 20, 1 h
Enterococcus faecalis [27] = test: Antimicrobial activity against vancomycin-resistant Enterococcus faecalis 609 assessed as time required to induce post antibiotic sub-MIC effect at 0.4 times MIC after 1 hr by plate counting method; conditions: Enterococcus faecalis, 609, 1 h
Streptococcus pneumoniae [28] = test: Antimicrobial activity against Penicillin-susceptible Streptococcus pneumoniae ATCC 49617 by microdilution method
Enterococcus faecalis [29] = test: Antimicrobial activity against vancomycin-resistant Enterococcus faecalis 266 assessed as time required to induce post antibiotic sub-MIC effect at 0.2 times MIC after 1 hr by plate counting method; conditions: Enterococcus faecalis, 266, 1 h
Staphylococcus aureus [30] = test: Antimicrobial activity against methicillin-susceptible, vancomycin-susceptible Staphylococcus aureus sox1 assessed as post antibiotic effect at 10 times MIC after 1 hr by plate counting method; conditions: sox1, 1 h
Staphylococcus aureus [31] = test: Antimicrobial activity against methicillin-resistant, vancomycin-intermediate Staphylococcus aureus 510 assessed as time required to induce post antibiotic sub-MIC effect at 0.3 times MIC after 1 hr by plate counting method; conditions: Staphylococcus aureus, 510, 1 h
Staphylococcus aureus [32] = test: Antimicrobial activity against methicillin-resistant, vancomycin-resistant Staphylococcus aureus 770 assessed as time required to induce sub-MIC effect at 0.3 times MIC after 1 hr by plate counting method; conditions: Staphylococcus aureus, 770, 1 h
Streptococcus pneumoniae [33] = test: Antimicrobial activity against Penicillin-, erythromycin-resistant Streptococcus pneumoniae 37 assessed as time required to induce post antibiotic sub-MIC effect at 0.3 times MIC after 1 hr by plate counting method; conditions: Streptococcus pneumoniae, 37, 1 h

Q: CCO/N=C(\C(=O)N[C@@H]1C(=O)N2C(C(=O)[O-])=C(Sc3nc(-c4cc[n+](C)cc4)cs3)CS[C@H]12)c1nsc(NP(=O)(O)O)n1 [CEFTAROLINE FOSAMIL] was tested. Which time (Staphylococcus aureus [1]) did it give?
A: 2.2 h

Q: And the PAE (Streptococcus pneumoniae [2])?
A: 0.3 h

Q: And the PAE (Staphylococcus aureus [3])?
A: 0.8 h

Q: And the time (Enterococcus faecalis [4])?
A: 1.8 h

Q: What about the PAE (Staphylococcus aureus [5]) of the same molecule?
A: 0.2 h

Q: And the PAE (Streptococcus pneumoniae [6])?
A: 0 h

Q: What about the time (Staphylococcus aureus [7]) of the same molecule?
A: 1.3 h

Q: And the PAE (Staphylococcus aureus [8])?
A: 2.8 h

Q: What about the time (Enterococcus faecalis [9]) of the same molecule?
A: 1.4 h

Q: And the PAE (Enterococcus faecalis [10])?
A: 10 h

Q: And the time (Enterococcus faecalis [11])?
A: 3.3 h

Q: And the time (Staphylococcus aureus [12])?
A: 2.9 h

Q: And the PAE (Streptococcus pneumoniae [13])?
A: 4.5 h

Q: And the time (Staphylococcus aureus [14])?
A: 0.7 h

Q: What about the PAE (Streptococcus pneumoniae [15]) of the same molecule?
A: 0.7 h

Q: And the time (Enterococcus faecalis [16])?
A: 3 h

Q: What about the time (Staphylococcus aureus [17]) of the same molecule?
A: 7.1 h

Q: And the MIC (Streptococcus pneumoniae [18])?
A: 0.008 µg/mL (≈ 0.0117 µM)

Q: What about the PAE (Streptococcus pneumoniae [19]) of the same molecule?
A: 1.5 h

Q: What about the PAE (Enterococcus faecalis [20]) of the same molecule?
A: 8.5 h

Q: What about the time (Enterococcus faecalis [21]) of the same molecule?
A: > 10.3 h

Q: And the time (Staphylococcus aureus [22])?
A: 2.7 h

Q: And the PAE (Staphylococcus aureus [23])?
A: 1.6 h

Q: And the PAE (Streptococcus pneumoniae [24])?
A: 1.6 h

Q: What about the PAE (Enterococcus faecalis [25]) of the same molecule?
A: 7.6 h

Q: What about the PAE (Enterococcus faecalis [26]) of the same molecule?
A: 0.5 h

Q: What about the time (Enterococcus faecalis [27]) of the same molecule?
A: 7.9 h

Q: And the MIC (Streptococcus pneumoniae [28])?
A: 0.016 µg/mL (≈ 0.0234 µM)

Q: And the time (Enterococcus faecalis [29])?
A: 8.3 h

Q: What about the PAE (Staphylococcus aureus [30]) of the same molecule?
A: 0.8 h

Q: What about the time (Staphylococcus aureus [31]) of the same molecule?
A: > 9.1 h

Q: What about the time (Staphylococcus aureus [32]) of the same molecule?
A: 0.5 h

Q: What about the time (Streptococcus pneumoniae [33]) of the same molecule?
A: 3 h
